± gives the expanded uncertainty stated by the source.
Settings: Liquid; for mass density: Vibrating tube method; for speed of sound: Pulse-echo method

CCCCCCCCCCCCCCCCCc1ccccc1 [heptadecane, 1-phenyl-]
Settings	mass density, 343.15 K [kg/m3]	mass density, 353.15 K [kg/m3]	mass density, 363.15 K [kg/m3]	mass density, 373.15 K [kg/m3]	speed of sound, 343.15 K [m/s]	speed of sound, 353.15 K [m/s]	speed of sound, 363.15 K [m/s]	speed of sound, 373.15 K [m/s]
100 kPa	–	814.43 ± 0.84	807.8 ± 0.84	801.11 ± 0.83	–	1255.2 ± 3.3	1223.6 ± 3.2	1193 ± 3.2
5000 kPa	–	817.93 ± 0.85	811.3 ± 0.84	805.07 ± 0.84	–	–	–	–
10000 kPa	–	821.35 ± 0.86	815.14 ± 0.85	808.86 ± 0.85	–	1308.6 ± 3.3	1278.7 ± 3.3	1249.5 ± 3.3
15000 kPa	830.75 ± 0.87	824.69 ± 0.87	818.57 ± 0.86	812.48 ± 0.86	–	–	–	–
20000 kPa	833.93 ± 0.88	827.9 ± 0.88	821.81 ± 0.87	815.93 ± 0.87	1387.3 ± 3.5	1359.3 ± 3.4	1330.3 ± 3.4	1302.6 ± 3.3
25000 kPa	836.75 ± 0.89	830.86 ± 0.89	824.97 ± 0.88	819.17 ± 0.88	–	–	–	–
30000 kPa	839.62 ± 0.9	833.85 ± 0.9	828 ± 0.9	822.4 ± 0.89	1432.3 ± 3.6	1405.3 ± 3.5	1378 ± 3.5	1351.4 ± 3.4
35000 kPa	842.4 ± 0.91	836.9 ± 0.91	830.94 ± 0.91	825.42 ± 0.91	–	–	–	–
40000 kPa	845.11 ± 0.92	839.55 ± 0.92	833.81 ± 0.92	828.43 ± 0.92	1475.5 ± 3.6	1448.5 ± 3.6	1422.2 ± 3.5	1396.8 ± 3.5
45000 kPa	847.75 ± 0.94	842.1 ± 0.93	836.5 ± 0.93	831.28 ± 0.93	–	–	–	–
50000 kPa	850.31 ± 0.95	844.78 ± 0.95	839.26 ± 0.95	834.03 ± 0.95	1515.3 ± 3.7	1489.5 ± 3.7	1464 ± 3.6	1439.2 ± 3.6
55000 kPa	852.73 ± 0.96	847.34 ± 0.96	841.95 ± 0.96	836.72 ± 0.96	–	–	–	–
60000 kPa	855.09 ± 0.97	849.77 ± 0.97	844.41 ± 0.97	839.37 ± 0.98	1553.3 ± 3.8	1528.3 ± 3.7	1503.3 ± 3.7	1479.7 ± 3.6
70000 kPa	–	–	–	–	1589.5 ± 3.8	1564.8 ± 3.8	1541.1 ± 3.7	1517.7 ± 3.7
80000 kPa	–	–	–	–	1624.1 ± 3.9	1600.1 ± 3.8	1576.4 ± 3.8	1553.8 ± 3.8
90000 kPa	–	–	–	–	1657.2 ± 3.9	1633.4 ± 3.9	1610.7 ± 3.9	1588.6 ± 3.8
100000 kPa	–	–	–	–	1688 ± 4	1665.5 ± 4	1643.4 ± 3.9	1621.8 ± 3.9
110000 kPa	–	–	–	–	1719.2 ± 4	1696.9 ± 4	1674.6 ± 4	1653.6 ± 3.9
120000 kPa	–	–	–	–	1748.7 ± 4.1	1726.9 ± 4.1	1705 ± 4	1684.3 ± 4
130000 kPa	–	–	–	–	1777.4 ± 4.2	1755.8 ± 4.1	1734.4 ± 4.1	1713.8 ± 4
140000 kPa	–	–	–	–	1805 ± 4.2	1783.8 ± 4.2	1763.3 ± 4.1	1742.7 ± 4.1
150000 kPa	–	–	–	–	1832 ± 4.2	1811.1 ± 4.2	1790 ± 4.2	1770.5 ± 4.1
